Legend:
Male Wistar rats = test: Elevated plus-maze (anxiolytic activity); assay type: in vivo, rat; details: 1 mM, 2 ul into lateral ventricle, 60 min
Description: (§1) The elevated plus-maze was developed for the detection of anxiolytic and anxiogenic drug effects in the rat (Pellow et al., 1985). The method has been validated behaviorally, physiologically, and pharmacologically. The plus-maze consists of two open arms and two enclosed arms. […] Conversely, anxiogenic compounds like yohimbin or amphetamines reduce open arm entries and time spent in the open arms.
Male Wistar rats weighing 250-300 g were group housed in a normal 12:12 light-dark cycle light on at 0800 hr and provide food and water ad libitum. The plus-maze consisted of two open arms, 50×10 cm, and two enclosed arms 50×10×40 cm with an open roof, arranged such that the two open arms were opposite to each other. The maze was elevated to a height of 50 cm.
Eight animals were tested in the plus-maze 90 min following IP injection with 50 μg/kg Mox and saline vehicle. The order of treatments was counter balanced with at least 48 hrs between injections. At the start of the experiment the animal was place in the center of the plus maze facing the closed arm. Over a five min observation period, animals were scored for the latency to enter the closed arm, time spent in the closed arm and the number of open arm entries following the first occupation of the closed arm (FIG. 7).
Because Mox and CDP have different bioavailability profiles, e.g. brain penetrance, their CNS activity could not be compared by giving systemic injections of equimolar concentrations of each drug. Instead it was necessary to give both drugs directly into the cerebroventricular system to by pass the blood brain barrier. Animals were anesthetized with sodium pentobarbital (50 mg/kg), implanted with microinjection guide cannulae aimed at the lateral ventricle and allowed to recover for two days before testing. To groups of six animals each were tested with Mox or CDP. Each animals received a injection of drug and 0.9% NaCl vehicle on two separate days. The order of injections was counterbalanced and separated by two days. Both Mox and CDP were prepared in 0.9% NaCl at a concentration of 1 mM. All injections were given in a volume of 2 ul over 10 secs in fully conscious, restrained animals. Sixty min later animals were tested in the plus-maze for a 3 min observation period and scored for behaviors as noted previously.
as §1, with “screening” for “the detection of”
Male Wistar rats weighing 250-300 g were group housed in a normal 12:12 light-dark cycle with light on at 0800 hr and provided food and water ad libitum. The plus-maze consisted of two open arms, 50 cm long, 10 cm wide, with walls 40 cm high made of clear Plexiglas. The two closed arms had the same dimensions but included a roof. The Plexiglas for the closed arms was painted black. Each pair of arms was arranged opposite to each other to form the plus-maze. The maze was elevated to a height of 50 cm. Eighteen animals were tested in the plus-maze 90 min following the IP injection of 1.0 μg/kg CLAV, 50 or vehicle control in a volume of ca. 0.3 ml. The order of treatments was counter balanced with at least 48 hrs between injections. At the start of the experiment, the animal was placed at the end of one of the open arms. Over a five min observation period, animals were scored for the latency to enter the closed arm, time spent in the closed arm and the number of open arm entries following the first occupation of the closed arm. The study produced tables of repeated measures. The data between treatments were compared with a two-way, repeated measures ANOVA followed by Bonferroni post hoc tests. […]

golden hamsters = test: Seed finding model of anxiety; assay type: in vivo, Syrian golden hamsters (Mesocricetus auratus); details: dose not given
Description: Clavulanic acid (CLAV) is structurally similar to the beta-lactam antibiotics. A most robust and simple bioassay for screening beta-lactams for CNS activity is the golden hamster seed finding model of anxiety. Briefly, hamsters are deprived of food overnight. The following day they are exposed to the additional stress of being taken from their home cage and placed in a novel environment for a few minutes. This manipulation stimulates the release of the stress hormone cortisol (FIG. 37). During their absence from the home cage, sunflower seeds are hidden under the bedding in one of the corners. When returned to the home cage, hamsters routinely scramble along the walls for 1-2 min before settling down, locating and eating the seeds. However, animals treated with the benzodiazepine anxiolytic chlordiazepoxide find seeds in less than 10 sec.
Male, Syrian golden hamsters (Mesocricetus auratus) (120-130 g) obtained from Harlan Sprague-Dawley Laboratories (Indianapolis, Ind.) were housed individually in Plexiglas cages (24 cm×24 cm×20 cm), maintained on a reverse light:dark cycle (14L:10D; lights on at 19:00 hr) and provided food and water ad libitum. A range of concentrations of CLAV (saline vehicle, 0.1, 1.0, 10, 100 1,000 ng/kg) were tested in six groups of hamsters (4-8/group)(FIG. 25). All tests were conducted during the dark phase of the circadian cycle under dim red illumination. Prior to testing all animals were fasted for 20-24 hrs. Ninety min after intraperitoneal (IP) injection of drug, animals were taken from their home cage and placed into a holding cage for 2 min. During their absence, six sunflower seeds were buried under the bedding in one corner of their home cage. Animals were placed back into their home cage randomly facing any one of the empty corners and timed for their latency to find the seeds in a five min observation period. Latency times were analyzed with a one-way ANOVA followed by Scheffe's post hoc tests. Assumption of equal variances was tested (Hartley's F-max=2.1 p>0.05)
It was hypothesized that CLAV functioned as an anxiolytic in the seed finding assay by blocking NAALADase activity in the brain. If this notion were true then it would be predicted that drugs known to block NAALADase should also enhance seed finding. To this end, animals were treated with N-acetyl-beta-aspartyl-glutamic acid (beta-NAAG), a competitive inhibitor of NAALADase (Serval et al., 1992) and tested in the seed finding model of anxiety. The study was similar to that outlined in Section I with one notable exception. […] Beta-NAAG (FW 304) was given in a dose of 3 ng in a volume of 1 μl saline ICV. The average adult hamster brain weights ca. 1.2 g of which 22% is extracellular fluid. The estimated beta-NAAG concentration was 11 ng/ml or 36 nM.
Two groups of six animals each were fasted overnight as previously described and tested the following day. One group was treated with beta-NAAG and the other saline vehicle and one hr later timed for latency to find the hidden sunflower seeds. A Student t-test for unpaired data was used for statistical comparisons.

rats = test: Motor activity in an open field (plus-maze animals); assay type: in vivo, rat; details: 1 mM direct injection into the brain, 30 min prior to plus-maze
Experimental: However, this depression of motor activity disappears following repeated administration of CDP over several days. […] To control for any non-specific effects of Mox and CDP on motor activity following their direct injection into the brain, animals were tested in the open field 30 min prior to testing in the plus (FIG. 18).
Immediately after each of the plus-maze tests reported above in Section II, animals were tested for general motor activity in an “open field.” Animals were placed into a large clean Plexiglas cage (48×32×40 cm) devoid of bedding. This open field was delineated into equal quadrants by tape on the underside of the cage. Animals were scored for motor activity by counting the number of quadrants traversed in 1 min.

male golden hamsters = test: Resident/intruder paradigm of offensive aggression; assay type: in vivo, Syrian golden hamsters (Mesocricetus auratus); details: D vs L isomer, 50 μg/kg IP
Experimental: Male Syrian golden hamsters (Mesocricetus auratus) (140-150 g) obtained from Harlan Sprague-Dawley Laboratories (Indianapolis, Ind.) were housed individually in Plexiglas cages (24 cm×24 cm×20 cm), maintained on a reverse light:dark cycle (14L:10D; lights on at 19:00 hr) and provided food and water ad libitum. Animals were acclimated to the reverse light:dark cycle for at least two weeks before testing. All behavioral tests were conducted during the dark phase of the circadian cycle. All animals were acquired and cared for in accordance with the guidelines published in the Guide for the Care and Use of Laboratory Animals (National Institutes of Health Publications No. 85-23, Revised 1985).
(§2) Agonistic behavior can be classified as either offensive or defensive aggression (Blanchard and Blanchard, 1977; Adams, […]; Albert and Walsh, 1984). Offensive aggression is characterized by the aggressor initiating an attack on an opponent, while defensive aggression lacks active approach. Both types of aggression have their own unique neurobehavioral systems. The stimuli that elicit offensive and defense attack are different, as are the sequences of behaviors that accompany each agonistic response. […] Offensive aggression is easily studied using male golden hamsters tested in a resident/intruder paradigm, an established model of offensive aggression (Ferris and Potegal 1988). Placing an unfamiliar male hamster into the home cage of another male hamster elicits a well-defined sequence of agonistic behaviors from the resident that includes offensive aggression.
(§3) Hamsters are nocturnal and as such all behavioral tests were performed during the first four hrs of the dark phase under dim red illumination. The resident was scored for offensive aggression, e.g., latency to bite the intruder, the total number of bites, total contact time with the intruder and flank marking over a 10 min test period (Ferris and Potegal, 1988). Flank marking is a form of olfactory communication in which a hamsters arches its back and rubs pheromone producing flank glands against objects in the environment (Johnson, 1986).
Parametric data, i.e., latencies and contact time, were analyzed with a one-way ANOVA followed by Newman-Keuls post hoc tests. Non parametric data, i.e., number of bites and flank marks, were analyzed with Kruskal-Wallis tests followed by Mann-Whitney U tests to determine differences between groups. Two sample comparisons were analyzed with paired and unpaired t-Tests for parametric data and Wilcoxon and Mann-Whitney Tests for paired and unpaired non-parametric data, respectively.
as §2, with “by an” for “by the”, “an opponent; while,” for “an opponent, while”, “Potegal 1988) in the context of defending the home burrow.” for “Potegal 1988).”
as §3, with “Flank marking is a form of olfactory communication in which a hamsters arches its back and rubs pheromone producing flank glands against objects in the environment (Johnson, 1986).” left out

[1] = human, in vivo; cited from earlier work
bacteria = details: cited from earlier work

| SMILES | time spent in the closed arm (dark) (Male Wistar rats) | latency to enter the closed arm (Male Wistar rats; 3 min observation) | time to find seeds (golden hamsters) | general motor activity in the open field (rats) | contact time (male golden hamsters) | flank marking (male golden hamsters) | isomer affecting offensive aggressive behavior (male golden hamsters) | bite latency (male golden hamsters; 90 min) | number of bites (male golden hamsters; 90 min) | unbound fraction to plasma protein vs L isomer [1] | antibacterial activity (bacteria) |
| --- | --- | --- | --- | --- | --- | --- | --- | --- | --- | --- | --- |
| CNC1=Nc2ccc(Cl)cc2C(c2ccccc2)=[N+]([O-])C1 [CDP, Chlordiazepoxide] | no effect | no effect | less than 10 sec | no significant effect | – | – | – | – | – | – | – |
| CO[C@@]1(NC(=O)C(C(=O)O)c2ccc(O)cc2)C(=O)N2C(C(=O)O)=C(CSc3nnnn3C)CO[C@@H]21 (some centres unmarked) [D Mox] | – | – | – | – | no significant difference | no significant difference | active isomer | significantly increased | reduced | greater unbound fraction | has antibacterial activity |

From patent US7842683B2, “Neurotherapeutic compositions and method” (Revaax Pharmaceuticals, LLC, priority 1999, dated 2010)
